US5747448A, “Derivatives of cyclodepsipeptide PF 1022” (Meiji Seika Kaisha, Ltd., priority 1993, dated 1998)
Read-outs that look alike come from different tables or passages of the source.

Columns and labels:
[1] = amide bond, 24-membered ring, THF/DMF
fowl roundworms = experiment: Fowl Roundworm Eliminating Test; assay type: in vivo; details: infected fowls, worms counted to day 7
Protocol: Test 1 Fowl Roundworm Eliminating Test Fowls (three fowls per group), which had been artificially infected with fowl roundworms and whose infection therewith had been confirmed by scatoscopy, were used as experimental animals. Upon administration of each test substance, the test substance weighed in a dose (mg) accurately calculated on the basis of the body weight (kg) of each fowl was suspended in carboxymethylcellulose-containing water, and the resulting suspension was administered orally as a single dose unit using a stomach tube. After the administration, the worms eliminated from the fowls were counted daily. Seven days after the administration, the fowl was sacrificed and autopsied and the worms remaining in its intestinal tract were counted. The percent elimination was calculated in accordance with the following calculation equation: [formula] Each test substance is indicated by the corresponding substance code name shown above in Table 1.

[2] = tested on: Nippostrongylus brasillensis; experiment: Anthelmintic effects on a rat intestinal nematode (N. brasillensis-infected rats); assay type: in vivo; details: male Wistar rats; for Number of remaining worms (average value ± SD): 10 mg/kg p.o. 7 days after inoculation, autopsy 10 days after inoculation; for % Effectiveness: 10 mg/kg p.o., compared with infected control group
Protocol: Anthelmintic effects of certain PF1022 derivatives on a rat intestinal nematode were tested in accordance with the following method.
Sixteen male Wistar rats were divided into eight groups (two rats per group), and about 2,000 larval worms of Nippostrongylus brasillensis were hypodermically inoculated per rat. Seven days after the inoculation, PF1022, PF1022E, PF1022-002, PF1022-003, PF1022-209, PF1022-218 and PF1022-219 were, as test substances, forcedly administered p.o. to the rats in the groups, respectively, in an amount of 10 mg/kg per rat. Upon administration, each test substance (8 mg) was dissolved in 0.2 ml of dimethyl sulfoxide and then, the resultant solution was diluted with distilled water to give a 2 ml suspension. Ten days after the inoculation,the rats were each subjected to autopsy and imaginal worms parasitic on the small intestines were counted.
As the test results, the average of remaining worms in each of the eight groups and the percent effectiveness of the test substance in each group as compared with that of the infected control group are shown in Table 4.

Compound: CCCCCC[C@H]1OC(=O)[C@H](CC(C)C)N(C)C(=O)[C@@H](C)OC(=O)[C@H](CC(C)C)N(C)C(=O)[C@@H](Cc2ccccc2)OC(=O)[C@H](CC(C)C)N(C)C(=O)[C@@H](C)OC(=O)[C@H](CC(C)C)N(C)C1=O
- ring closure, isolated yield ([1]; from H-MeLeu-dOctA-MeLeu-dLac-MeLeu-dPhLac-MeLeu-dLac-OH, EDCI.HCl/HOBt/NMM/LiCl/NaCl/KCl/CsCl, 0.95 mM): 24.7%

Compound: CCCC[C@H]1OC(=O)[C@H](CC(C)C)N(C)C(=O)[C@@H](Cc2ccccc2)OC(=O)[C@H](CC(C)C)N(C)C(=O)[C@@H](C)OC(=O)[C@H](CC(C)C)N(C)C(=O)[C@@H](Cc2ccccc2)OC(=O)[C@H](CC(C)C)N(C)C1=O
- ring closure, isolated yield ([1]; from H-MeLeu-dLac-MeLeu-dPhLac-MeLeu-dnorLEUA-MeLeu-dPhLac-OH, EDCI.HCl/HOBt/NMM/LiCl/NaCl/KCl/CsCl, 0.76 mM): 82%

Compound: CC(C)C[C@@H]1NC(=O)[C@@H](C)OC(=O)[C@H](CC(C)C)N(C)C(=O)[C@@H](Cc2ccccc2)OC(=O)[C@H](CC(C)C)NC(=O)[C@@H](C)OC(=O)[C@H](CC(C)C)N(C)C(=O)[C@@H](Cc2ccccc2)OC1=O [Cyclo-(L-MeLeu-D-Lac-L-Leu-D-PhLac)2]
- ring closure, isolated yield ([1]; from H-MeLeu-dLac-Leu-dPhLac-MeLeu-dLac-Leu-dPhLac-OH, EDCI.HCl/HOBt/NMM, LiCl/KCl/NaCl/CsCl, 0.96 mM, 25.0 °C, 3 steps): 55.8%

Compound: CCCCCC[C@H]1OC(=O)[C@H](CC(C)C)N(C)C(=O)[C@@H](C)OC(=O)[C@H](CC(C)C)N(C)C(=O)[C@@H](CCCCCC)OC(=O)[C@H](CC(C)C)N(C)C(=O)[C@@H](C)OC(=O)[C@H](CC(C)C)N(C)C1=O [Cyclo-(L-MeLeu-D-OctA-L-MeLeu-D-Lac)2]
- ring closure, isolated yield ([1]; from H-MeLeu-dOctA-MeLeu-dLac-MeLeu-dOctA-MeLeu-dLac-OH, EDCI.HCl/HOBt/NMM/LiCl/NaCl/KCl/CsCl, 0.81 mM): 92%

Compound: CC(C)C[C@@H]1NC(=O)[C@@H](Cc2ccccc2)OC(=O)[C@H](CC(C)C)N(C)C(=O)[C@@H](C)OC(=O)[C@H](CC(C)C)NC(=O)[C@@H](Cc2ccccc2)OC(=O)[C@H](CC(C)C)N(C)C(=O)[C@@H](C)OC1=O [Cyclo-(L-MeLeu-D-PhLac-L-Leu-D-Lac)2]
- ring closure, isolated yield ([1]; from H-MeLeu-dPhLac-Leu-dLac-MeLeu-dPhLac-Leu-dLac-OH, EDCI.HCl/HOBt/NMM, LiCl/KCl/NaCl/CsCl, 0.96 mM, 25.0 °C, 3 steps): 62%

Compound: CC(C)C[C@H]1C(=O)O[C@H](C(C)C)C(=O)N(C)[C@@H](CC(C)C)C(=O)O[C@H](C)C(=O)N(C)[C@@H](CC(C)C)C(=O)O[C@H](C(C)C)C(=O)N(C)[C@@H](CC(C)C)C(=O)O[C@H](C)C(=O)N1C [Cyclo-(L-MeLeu-D-VALA-L-MeLeu-D-Lac)2]
- ring closure, isolated yield ([1]; from H-MeLeu-dVALA-MeLeu-dLac-MeLeu-dVALA-MeLeu-dLac-OH, EDCI.HCl/HOBt/NMM/LiCl/NaCl/KCl/CsCl, 0.88 mM): 92%

Compound: CC[C@@H](C)[C@H]1OC(=O)[C@H](CC(C)C)N(C)C(=O)[C@@H](Cc2ccccc2)OC(=O)[C@H](CC(C)C)N(C)C(=O)[C@@H]([C@H](C)CC)OC(=O)[C@H](CC(C)C)N(C)C(=O)[C@@H](Cc2ccccc2)OC(=O)[C@H](CC(C)C)N(C)C1=O [Cyclo-(L-MeLeu-D-isoLEUA-L-MeLeu-D-PhLac)2]
- ring closure, isolated yield ([1]; from H-MeLeu-disoLEUA-MeLeu-dPhLac-MeLeu-disoLEUA-MeLeu-dPhLac-OH, EDCI.HCl/HOBt/NMM/LiCl/NaCl/KCl/CsCl, 0.87 mM, 3 steps): 29%

Compound: CCCC[C@H]1OC(=O)[C@H](CC(C)C)N(C)C(=O)[C@@H](Cc2ccccc2)OC(=O)[C@H](CC(C)C)N(C)C(=O)[C@@H](CCCC)OC(=O)[C@H](CC(C)C)N(C)C(=O)[C@@H](Cc2ccccc2)OC(=O)[C@H](CC(C)C)N(C)C1=O [Cyclo-(L-MeLeu-D-norLEUA-L-MeLeu-D-PhLac)2]
- ring closure, isolated yield ([1]; from H-MeLeu-dnorLEUA-MeLeu-dPhLac-MeLeu-dnorLEUA-MeLeu-dPhLac-OH, EDCI.HCl/HOBt/NMM/LiCl/NaCl/KCl/CsCl, 0.82 mM, 3 steps): 35.8%

Compound: CC(C)C[C@H]1C(=O)O[C@H](Cc2ccc(O)cc2)C(=O)N(C)[C@@H](CC(C)C)C(=O)O[C@H](C)C(=O)N(C)[C@@H](CC(C)C)C(=O)O[C@H](Cc2ccccc2)C(=O)N(C)[C@@H](CC(C)C)C(=O)O[C@H](C)C(=O)N1C [H-MeLeu-dLac-MeLeu-dTYRA-MeLeu-dLac-MeLeu-dPhLac-OH]
- ring closure, isolated yield ([1]; from H-MeLeu-dLac-MeLeu-dTYRA-MeLeu-dLac-MeLeu-dPhLac-OH, EDCI.HCl/HOBt/NMM/LiCl/KCl/NaCl/CsCl, 0.89 mM): 33%

Compound: CC(C)C[C@H]1C(=O)O[C@H](Cc2ccc(O)cc2)C(=O)N(C)[C@@H](CC(C)C)C(=O)O[C@H](C)C(=O)N(C)[C@@H](CC(C)C)C(=O)O[C@H](Cc2ccccc2)C(=O)N(C)[C@@H](CC(C)C)C(=O)O[C@H](C)C(=O)N1C [PF1022 E, cyclo-(-L-Meleu-D-Lac-L-MeLeu-D-TYRA-L-MeLeu-D-Lac-L-MeLeu-D-PhLac)]
- % Elimination (fowl roundworms; single oral dose 0.5 mg/kg): 70%
- Number of remaining worms (average value ± SD) [2]: 2175 ± 134.4
- % Effectiveness [2]: 0%

Compound: CC(C)CC1C(=O)OC(C)C(=O)N(C)C(CC(C)C)C(=O)OC(C)C(=O)N(C)C(CC(C)C)C(=O)OC(C)C(=O)N(C)C(CC(C)C)C(=O)OC(C)C(=O)N1C [PF1022-002, cyclo-(L-MeLeu-D-Lac-)4]
- Number of remaining worms (average value ± SD) [2]: 1976.5
- % Effectiveness [2]: 2.7%

Compound: COc1ccc(C[C@H]2OC(=O)[C@H](CC(C)C)N(C)C(=O)[C@@H](C)OC(=O)[C@H](CC(C)C)N(C)C(=O)[C@@H](Cc3ccccc3)OC(=O)[C@H](CC(C)C)N(C)C(=O)[C@@H](C)OC(=O)[C@H](CC(C)C)N(C)C2=O)cc1 [PF1022-005, cyclo-(-L-MeLeu-D-Lac-L-MeLeu-D-PhLac-L-MeLeu-D-Lac-L-MeLeu-D-TYRA(OMe)]
- % Elimination (fowl roundworms; single oral dose 0.5 mg/kg): 73%
- % Elimination (fowl roundworms; single oral dose 1.0 mg/kg): 89%
- % Elimination (fowl roundworms; single oral dose 2.0 mg/kg): 100%

Compound: CCOc1ccc(C[C@H]2OC(=O)[C@H](CC(C)C)N(C)C(=O)[C@@H](C)OC(=O)[C@H](CC(C)C)N(C)C(=O)[C@@H](Cc3ccccc3)OC(=O)[C@H](CC(C)C)N(C)C(=O)[C@@H](C)OC(=O)[C@H](CC(C)C)N(C)C2=O)cc1 [PF1022-016, cyclo-(L-MeLeu-D-PhLac-L-MeLeu-D-Lac-L-MeLeu-D-TYRA(OEt)-L-MeLeu-D-Lac)]
- % Elimination (fowl roundworms; single oral dose 0.5 mg/kg): 55%
- % Elimination (fowl roundworms; single oral dose 1.0 mg/kg): 61%
- % Elimination (fowl roundworms; single oral dose 2.0 mg/kg): 100%

Compound: CCCCOc1ccc(C[C@H]2OC(=O)[C@H](CC(C)C)N(C)C(=O)[C@@H](C)OC(=O)[C@H](CC(C)C)N(C)C(=O)[C@@H](Cc3ccccc3)OC(=O)[C@H](CC(C)C)N(C)C(=O)[C@@H](C)OC(=O)[C@H](CC(C)C)N(C)C2=O)cc1 [PF1022-021, cyclo-(L-MeLeu-D-PhLac-L-MeLeu-D-Lac-L-MeLeu-D-TYRA(O-n-Bu)-L-MeLeu-D-Lac)]
- % Elimination (fowl roundworms; single oral dose 1.0 mg/kg): 41%
- % Elimination (fowl roundworms; single oral dose 2.0 mg/kg): 90%

Compound: CC(C)CC1NC(=O)C(Cc2ccccc2)OC(=O)C(CC(C)C)N(C)C(=O)C(C)OC(=O)C(CC(C)C)NC(=O)C(Cc2ccccc2)OC(=O)C(CC(C)C)N(C)C(=O)C(C)OC1=O [PF1022-218, cyclo-(L-MeLeu-D-PhLac-L-Leu-D-Lac)2]
- Number of remaining worms (average value ± SD) [2]: 2400 ± 362.0
- % Effectiveness [2]: 0%

Compound: CC(C)CC1C(=O)OC(CC2CCCCC2)C(=O)N(C)C(CC(C)C)C(=O)OC(C)C(=O)N(C)C(CC(C)C)C(=O)OC(CC2CCCCC2)C(=O)N(C)C(CC(C)C)C(=O)OC(C)C(=O)N1C (stereo not shown) [PF1022-ADH, dodecahydro-PF1022]
- % Elimination (fowl roundworms; single oral dose 5 mg/kg): 30%

Compound: CC(C)CC1C(=O)OC(CC2CCCCC2)C(=O)N(C)C(CC(C)C)C(=O)OC(C)C(=O)N(C)C(CC(C)C)C(=O)OC(Cc2ccccc2)C(=O)N(C)C(CC(C)C)C(=O)OC(C)C(=O)N1C (stereo not shown) [PF1022-AHH, hexahydro-PF1022]
- % Elimination (fowl roundworms; single oral dose 5 mg/kg): 62%

Compound: cyclo-(L-MeLeu-D-PhLac-L-MeLeu-D-Lac-L-MeLeu-D-TYRA(O-All)-L-MeLeu-D-Lac) [PF1022-020]
- % Elimination (fowl roundworms; single oral dose 1.0 mg/kg): 54%
- % Elimination (fowl roundworms; single oral dose 2.0 mg/kg): 100%

Compound: cyclo-(L-MeLeu-D-PhLac-L-MeLeu-D-Lac-L-MeLeu-D-TYRA(OBn)-L-MeLeu-D-Lac) [PF1022-022]
- % Elimination (fowl roundworms; single oral dose 1.0 mg/kg): 40%
- % Elimination (fowl roundworms; single oral dose 2.0 mg/kg): 93%
- % Elimination (fowl roundworms; single oral dose 5 mg/kg): 84%

Compound: cyclo-(L-MeLeu-D-VALA-L-MeLeu-D-Lac)2 [PF1022-209]
- Number of remaining worms (average value ± SD) [2]: 827 ± 388.9
- % Effectiveness ([2]; 10 mg/kg): 59.3%
- % Effectiveness ([2]; listed as PF 1022-209, 10 mg/kg): 59.8%
